Reference: article PMC8450341 (Frontiers in Physiology, 2021)
Entries after “also recorded” stand apart in the source; their conditions may differ. Read-outs that look alike come from different tables or passages of the source.

What was measured:
[1] = system: calves with hypoxia-induced pulmonary hypertension; assay: Echocardiography in neonatal calf model of hypoxia-induced PH; assay type: in vivo, bovine calf
Description: (§1) The bovine calf hypoxia model of PH previously reported ([Stenmark et al., 1987]; [Lemler et al., 2000]; [Bartels et al., 2016]) consistently produces significant pulmonary hypertension (mean PAP > 100 mmHg) and subsequent tissue changes on post-mortem examination ([Stenmark et al., 1987]). Animals display blood gas PaO2 and PaCO2 values consistent to severe hypoxia and PH ([Stenmark et al., 1987]; [Lemler et al., 2000]). Male Holstein dairy calves at 7 days of age (45–50 kg) were sourced from a local dairy farm. This study utilized a case comparison design. […] Hypoxic calves (Groups 1 and 2) were exposed to hypobaric hypoxia at simulated elevation of 10,000 feet for 48–72 h to allow acclimation then exposed to hypobaric hypoxia at the study condition of 15,000 feet simulated elevation (PB = 430 mmHg, Hypo-Hyperbaric Chamber Facility, Colorado State University Department of Physiology). The standard exposure interval was 14 days at this elevation. Control normoxic calves remained at ambient Fort Collins pressure (4,950 feet PB = 630 mmHg).
(§2) This dosing regimen was selected to minimize adverse effects based on guidelines for human pediatric patients (Lia Gore MD, Center for Cancer and Blood Disorders, Children’s Hospital Colorado, personal communication.) Group 2 calves received no drug treatment. At this age, the calf digestive system has not matured and the abomasum functions as the sole stomach similar to humans.
(§3) Echocardiography was utilized for non-invasive sequential assessment of cardiopulmonary function as described previously ([Lemler et al., 2000]; [Bartels et al., 2016]). […] The progression of pulmonary hypertension was evaluated by sequential echocardiography at the study condition (15,000 feet or normoxia) on study days 4, 8 and terminal day 14. Parasternal long and short axis recordings were obtained over 3–4 cardiac cycles, together with M-mode traces as indicated, using GE Echo PACS (General Electric, Chicago, IL, United States) or MicroDicom^1 software. Echocardiographic findings consistent with PH (abnormal RV size and function), or interventricular septum abnormalities including abnormal motion or flattening were evaluated ([Boon, 2011]). Septal motion and flattening were further quantitated by eccentricity index EI on short-axis views with EchoPACS. Tricuspid or mitral valve regurgitation was scored qualitatively as trace, mild, moderate or severe. Global RV function was assessed qualitatively. When RV images on long-axis included the entire chamber, RV fractional area change (FAC) was calculated with EchoPACS. RV fractional shortening was measured from M-mode recordings using MicroDicom. Calves were monitored following each non-terminal echo procedure for recovery including standing and interacting normally, and normal milk intake.

[2] = system: normoxic control calves; assay: Echocardiography in normoxic vorinostat-treated control calves; assay type: in vivo, bovine calf
Description: as §1, §2, §3

[3] = system: calves with hypoxia-induced pulmonary hypertension; assay: Hemodynamics by right heart catheterization, hypoxic calf; assay type: in vivo, bovine calf
Description: as §1, §2
(§4) Standard measurements of PAP and cardiac output were performed by right heart catheterization concurrent with the final echo in both the two normoxic and two hypoxic calves on study day 14 as described previously ([Stenmark et al., 1987]; [Lemler et al., 2000]).
(§5) Data were obtained from right heart catheterization as described in Materials and Methods. Standard units: Pressure, mm Hg; Cardiac output, L/min; PA, pulmonary artery.

[4] = system: normoxic control calves; assay: Hemodynamics by right heart catheterization, normoxic calves; assay type: in vivo, bovine calf
Description: as §1, §2, §4, §5

[5] = system: calves in normoxic or hypoxic conditions; assay: Clinical signs and blood chemistry during and after dosing; assay type: in vivo, bovine calf
Description: as §2

[6] = system: brain natriuretic peptide (BNP) and skeletal muscle alpha-actin mRNAs; assay: Real-time PCR of genes in RV hypertrophic remodeling; assay type: in vivo, bovine calf
Protocol: At the conclusion of the study period, calves were deeply anesthetized and euthanized. Tissue samples from right ventricle free wall and distal lung parenchyma were snap frozen in liquid nitrogen for laboratory analysis. RNA isolation and quantitative PCR were performed as described previously ([Frid et al., 2009]). mRNA abundance was quantitated relative to HPRT by the delta Ct method. The following primers were used (5′–3′). Fibronectin, Extracellular Domain A (ED-A Fn), Fwd:[…], Rev:[…]; Tenascin C (TnC), Fwd:G […], Rev:[…] TCCA; Osteopontin (SPPA), Fwd:[…] […]
(A) Immunoblotting HDAC abundance. RV and lung homogenates were prepared and HDAC abundance was determined by immunoblotting as described in section “Materials and Methods.” Additional untreated control and hypoxic animals were analyzed in parallel for comparison. Protein abundance was quantitated densitometrically relative to beta-actin. *p < 0.05 vs. control (unpaired two-tailed t-test). […] Abundances of indicated mRNAs were quantitated by real-time PCR as described in section “Materials and Methods.” Animals used in the present study were analyzed together with samples from additional untreated hypoxic and normoxic calves (n = 4 each) that were managed according to the same animal protocols described in section “Materials and Methods,” and studied around the same period of time. […]

[7] = cited from earlier work
[8] = set-up: method as in Fraczek et al., 2013; conditions: dogs, oral; ref Fraczek et al., 2013; cited from earlier work
[9] = set-up: method as in Fraczek et al., 2013; conditions: rats, oral; ref Fraczek et al., 2013; cited from earlier work
[10] = Hypoxic vorinostat treated calf, study day 14
[11] = vorinostat-treated PH calf, day 14
[12] = Normoxic vorinostat treated #1, study day 14
[13] = Normoxic vorinostat treated #2, study day 14
[14] = human adult dose of 400 mg daily, ref Iwamoto et al., 2013

Which results are given for `O=C(CCCCCCC(=O)Nc1ccccc1)NO` [vorinostat, suberanilohydroxamic acid]?
RV Fractional area change (FAC) ([1]; Hypoxic #1 calf, vorinostat first 5 days, Study Day 14): 30.1%; septal distortion compared to untreated PH calf ([1]; vorinostat-treated PH calf, apical 4-chamber echo images): reduced septal distortion; RV fractional shortening ([1]; vorinostat-treated PH calf, day 14, M-mode): 20%; degree of RV dysfunction compared to untreated hypoxic calf ([1]; vorinostat-treated hypoxic calf, days 4, 8, and 14): consistently less severe; RV Fractional area change (FAC) ([2]; Normoxic #2 calf, vorinostat administration, Study Day 14): 50.9%; adverse cardiac effects ([2]; based on echo and hemodynamic criteria): no evidence for adverse cardiac effects; RV fractional shortening ([2]; control (normoxic vorinostat-treated) calf, day 14, M-mode): 50%; echocardiographic evidence of negative impacts on cardiac function ([2]; control normoxic calves, vorinostat treatment): not associated with echocardiographic evidence of negative impacts on cardiac function; Cardiac Output [3, 10]: 5.5 L/min; Mean PA Pressure [3, 10]: 97.6 mm Hg; PA Pulse Pressure [3, 10]: 38.9 mm Hg; Systolic PA Pressure [3, 10]: 118.5 mm Hg; PA pulse pressure compared to untreated hypoxic calf [3, 11]: tended toward reduced; also recorded: substantially reduced; PA systolic pressure compared to untreated hypoxic calf [3, 11]: tended toward reduced; also recorded: slightly reduced; cardiac output compared to untreated hypoxic calf [3, 11]: increased; also recorded: increasing; mean PA pressure compared to untreated hypoxic calf [3, 11]: similar; also recorded: did not lower; Cardiac Output [4, 12]: 4.4 L/min; Mean PA Pressure [4, 12]: 25.1 mm Hg; PA Pulse Pressure [4, 12]: 17.6 mm Hg; Systolic PA Pressure [4, 12]: 34.0 mm Hg; Cardiac Output [4, 13]: 5.1 L/min; Mean PA Pressure [4, 13]: 19.4 mm Hg; PA Pulse Pressure [4, 13]: 14.5 mm Hg; Systolic PA Pressure [4, 13]: 27.1 mm Hg; effect on hemodynamic parameters in normoxic calves ([4]; compared to the authors' previous studies): did not affect; standard blood chemistry values ([5]; data not shown): within normal reference intervals; adverse clinical signs attributable to vorinostat administration ([5]; during or following active dosing, normoxic or hypoxic conditions): No adverse clinical signs; RV expression of BNP and skeletal muscle alpha-actin mRNAs ([6]; hypoxic calf, compared to calves with untreated PH): tended to decrease; RV mRNA abundance (BNP, skeletal muscle alpha-actin) of control calves ([6]; normoxic control calves): not affected; AUC [7, 14]: 4,000–6,000 nM•h; Cmax [7, 14]: 1000 to 1500 nM; half-life ([7]; humans and other animal species, ref Mohamed et al., 2012, Fraczek et al., 2013, Iwamoto et al.): approximately 2 h; Bioavailability of oral vorinostat ([7]; humans, ref Fraczek et al., 2013): 43%; Tmax ([7]; post-fed humans, ref Iwamoto et al., 2013): ~4 h; bioavailability [8]: 11%; bioavailability [9]: 2%
